Earlier results in patent US7713550B2, “Controlled release sodium valproate formulation” (Andrx Corporation, priority 2004, dated 2010).

Conditions: for valproic acid

CCCC(CCC)C(=O)O [divalproex sodium]
solubility: 1270 µg/mL
